{"source": "paper PMC9021288", "about": "(Nature Communications, 2022)", "key": {"in vitro": {"experiment": "in vitro", "settings": "human"}, "[1]": {"settings": "mouse, plasma"}, "[2]": {"settings": "dog, plasma"}, "[3]": {"settings": "rat, plasma"}, "[4]": {"settings": "human, plasma"}, "[5]": {"settings": "rat"}, "[6]": {"settings": "mouse"}, "[7]": {"settings": "human"}}, "note": "Like-named read-outs stand apart in the source and are kept apart here.", "data": [{"smiles": "NC(=O)N1c2ccccc2C=Cc2ccccc21", "note": "[Carbamazepine]", "values": [{"measurement": "Papp A→B at 9000 Sec, 2 µM", "setting": "in vitro; Caco-2, pH 7.4", "result": 25, "unit": "×10⁻⁶ cm/s"}, {"measurement": "Papp B→A at 9000 Sec, 2 µM", "setting": "in vitro; Caco-2, pH 7.4", "result": 28.9, "unit": "×10⁻⁶ cm/s"}, {"measurement": "efflux ratio at 9000 Sec, 2 µM", "setting": "in vitro; Caco-2, pH 7.4", "result": 1.2}, {"measurement": "Papp at 9000 Sec, 2 µM", "setting": "in vitro; Caco-2, pH 7.4, Papp AVG", "result": 25, "unit": "×10⁻⁶ cm/s"}, {"measurement": "Papp at 9000 Sec, 2 µM", "setting": "in vitro; Caco-2, pH 7.4, Papp n=1, 2", "result": 24.3, "unit": "×10⁻⁶ cm/s"}]}, {"smiles": "C[C@@H](CNC(=O)[C@H](O)C(C)(C)CO)NC(=O)c1cc(F)c(F)cc1F", "note": "[MMV693183-03]", "values": [{"measurement": "% Bound Avg", "setting": "[1]", "result": 33.4, "unit": "%"}, {"measurement": "% Bound n=1", "setting": "[1]", "result": 32.91, "unit": "%"}, {"measurement": "% Bound n=2", "setting": "[1]", "result": 33.90, "unit": "%"}, {"measurement": "% Free n=1", "setting": "[1]", "result": 67.09, "unit": "%"}, {"measurement": "% Free n=2", "setting": "[1]", "result": 66.10, "unit": "%"}, {"measurement": "% Bound Avg", "setting": "[2]", "result": 41.3, "unit": "%"}, {"measurement": "% Bound n=1", "setting": "[2]", "result": 42.38, "unit": "%"}, {"measurement": "% Bound n=2", "setting": "[2]", "result": 40.31, "unit": "%"}, {"measurement": "% Free n=1", "setting": "[2]", "result": 57.62, "unit": "%"}, {"measurement": "% Free n=2", "setting": "[2]", "result": 59.69, "unit": "%"}, {"measurement": "% Bound Avg", "setting": "[3]", "result": 39.9, "unit": "%"}, {"measurement": "% Bound n=1", "setting": "[3]", "result": 39.84, "unit": "%"}, {"measurement": "% Bound n=2", "setting": "[3]", "result": 39.89, "unit": "%"}, {"measurement": "% Free n=1", "setting": "[3]", "result": 60.16, "unit": "%"}, {"measurement": "% Free n=2", "setting": "[3]", "result": 60.11, "unit": "%"}, {"measurement": "% Bound Avg", "setting": "[4]", "result": 51.9, "unit": "%"}, {"measurement": "% Bound n=1", "setting": "[4]", "result": 52.54, "unit": "%"}, {"measurement": "% Bound n=2", "setting": "[4]", "result": 51.24, "unit": "%"}, {"measurement": "% Free n=1", "setting": "[4]", "result": 47.46, "unit": "%"}, {"measurement": "% Free n=2", "setting": "[4]", "result": 48.76, "unit": "%"}]}, {"smiles": "C[C@@H](CNC(=O)[C@H](O)C(C)(C)CO)NC(=O)c1cc(F)c(F)cc1F", "note": "[MMV693183-08]", "values": [{"measurement": "Blood to Plasma ratio Avg(n=2)", "setting": "[5]", "result": 0.91}, {"measurement": "Blood to Plasma ratio Avg(n=2)", "setting": "[6]", "result": 0.98}, {"measurement": "Blood to Plasma ratio Avg(n=2)", "setting": "[7]", "result": 0.97}]}]}
